The source made the active and inactive calls. The calls are words filed in the database; no cut-off is given here.

Series [1] addresses Huntingtin (Homo sapiens) (UniProt P42858). The series can be described thus: Inhibition of N-terminal GFP-tagged Htt-exon1-Q103 (unknown origin) transfected in HEK293A cells assessed as reduction of Htt-Q103 aggregate formation at 50 uM after 3 days by fluorescence microscopic analysis. The settings on record: HEK293-A. It counts as cell-based.
Series [2] has as its system Mus musculus. The series can be described thus: Toxicity in R6/2 transgenic mouse assessed as increase in body weight at 0.4%, po measured up to 9 weeks. It is filed as organism-based. The settings on record: in vivo, 1512 h.
Series [3] can be described thus: Solubility in water. It is filed as physicochemical. The following applies: buffer.
Series [4] concerns the target Huntingtin (Homo sapiens) (UniProt P42858). As to the kind of experiment: Inhibition of N-terminal GFP-tagged Htt-exon1-Q103 (unknown origin) transfected in Neuro2a cells assessed as reduction of Htt-Q103 aggregate formation at 100 uM by fluorescence microscopic analysis. It counts as cell-based.
The test system of series [5] is Mus musculus. As to the kind of experiment: Inhibition of mutated huntingtin aggregate formation in liver homogenate of R6/2 transgenic mouse at 0.4%, po after 4 to 8 weeks by Western blotting analysis. It is filed as functional, organism-based. On the technique in general: Immunoblotting shows a protein as a band on a membrane.
Series [6] has as its system Mus musculus. As to the kind of experiment: Neuroprotective activity in R6/2 transgenic mouse assessed as improved motor coordination and balance at 0.4%, po measured up to 8 weeks by rotarod test. It counts as functional, organism-based. (In general: In the rotarod test animals must keep their balance on a rotating rod.)
The target in series [7] is Huntingtin (Homo sapiens) (UniProt P42858). The series can be described thus: Inhibition of N-terminal GFP-tagged Htt-exon1-Q103 (unknown origin) transfected in HEK293A cells assessed as reduction of Htt-Q103 aggregate formation by filter trap assay. It is filed as cell-based. The following applies: HEK293-A.
Chain of Huntingtin (Homo sapiens) (P42858 whole entry): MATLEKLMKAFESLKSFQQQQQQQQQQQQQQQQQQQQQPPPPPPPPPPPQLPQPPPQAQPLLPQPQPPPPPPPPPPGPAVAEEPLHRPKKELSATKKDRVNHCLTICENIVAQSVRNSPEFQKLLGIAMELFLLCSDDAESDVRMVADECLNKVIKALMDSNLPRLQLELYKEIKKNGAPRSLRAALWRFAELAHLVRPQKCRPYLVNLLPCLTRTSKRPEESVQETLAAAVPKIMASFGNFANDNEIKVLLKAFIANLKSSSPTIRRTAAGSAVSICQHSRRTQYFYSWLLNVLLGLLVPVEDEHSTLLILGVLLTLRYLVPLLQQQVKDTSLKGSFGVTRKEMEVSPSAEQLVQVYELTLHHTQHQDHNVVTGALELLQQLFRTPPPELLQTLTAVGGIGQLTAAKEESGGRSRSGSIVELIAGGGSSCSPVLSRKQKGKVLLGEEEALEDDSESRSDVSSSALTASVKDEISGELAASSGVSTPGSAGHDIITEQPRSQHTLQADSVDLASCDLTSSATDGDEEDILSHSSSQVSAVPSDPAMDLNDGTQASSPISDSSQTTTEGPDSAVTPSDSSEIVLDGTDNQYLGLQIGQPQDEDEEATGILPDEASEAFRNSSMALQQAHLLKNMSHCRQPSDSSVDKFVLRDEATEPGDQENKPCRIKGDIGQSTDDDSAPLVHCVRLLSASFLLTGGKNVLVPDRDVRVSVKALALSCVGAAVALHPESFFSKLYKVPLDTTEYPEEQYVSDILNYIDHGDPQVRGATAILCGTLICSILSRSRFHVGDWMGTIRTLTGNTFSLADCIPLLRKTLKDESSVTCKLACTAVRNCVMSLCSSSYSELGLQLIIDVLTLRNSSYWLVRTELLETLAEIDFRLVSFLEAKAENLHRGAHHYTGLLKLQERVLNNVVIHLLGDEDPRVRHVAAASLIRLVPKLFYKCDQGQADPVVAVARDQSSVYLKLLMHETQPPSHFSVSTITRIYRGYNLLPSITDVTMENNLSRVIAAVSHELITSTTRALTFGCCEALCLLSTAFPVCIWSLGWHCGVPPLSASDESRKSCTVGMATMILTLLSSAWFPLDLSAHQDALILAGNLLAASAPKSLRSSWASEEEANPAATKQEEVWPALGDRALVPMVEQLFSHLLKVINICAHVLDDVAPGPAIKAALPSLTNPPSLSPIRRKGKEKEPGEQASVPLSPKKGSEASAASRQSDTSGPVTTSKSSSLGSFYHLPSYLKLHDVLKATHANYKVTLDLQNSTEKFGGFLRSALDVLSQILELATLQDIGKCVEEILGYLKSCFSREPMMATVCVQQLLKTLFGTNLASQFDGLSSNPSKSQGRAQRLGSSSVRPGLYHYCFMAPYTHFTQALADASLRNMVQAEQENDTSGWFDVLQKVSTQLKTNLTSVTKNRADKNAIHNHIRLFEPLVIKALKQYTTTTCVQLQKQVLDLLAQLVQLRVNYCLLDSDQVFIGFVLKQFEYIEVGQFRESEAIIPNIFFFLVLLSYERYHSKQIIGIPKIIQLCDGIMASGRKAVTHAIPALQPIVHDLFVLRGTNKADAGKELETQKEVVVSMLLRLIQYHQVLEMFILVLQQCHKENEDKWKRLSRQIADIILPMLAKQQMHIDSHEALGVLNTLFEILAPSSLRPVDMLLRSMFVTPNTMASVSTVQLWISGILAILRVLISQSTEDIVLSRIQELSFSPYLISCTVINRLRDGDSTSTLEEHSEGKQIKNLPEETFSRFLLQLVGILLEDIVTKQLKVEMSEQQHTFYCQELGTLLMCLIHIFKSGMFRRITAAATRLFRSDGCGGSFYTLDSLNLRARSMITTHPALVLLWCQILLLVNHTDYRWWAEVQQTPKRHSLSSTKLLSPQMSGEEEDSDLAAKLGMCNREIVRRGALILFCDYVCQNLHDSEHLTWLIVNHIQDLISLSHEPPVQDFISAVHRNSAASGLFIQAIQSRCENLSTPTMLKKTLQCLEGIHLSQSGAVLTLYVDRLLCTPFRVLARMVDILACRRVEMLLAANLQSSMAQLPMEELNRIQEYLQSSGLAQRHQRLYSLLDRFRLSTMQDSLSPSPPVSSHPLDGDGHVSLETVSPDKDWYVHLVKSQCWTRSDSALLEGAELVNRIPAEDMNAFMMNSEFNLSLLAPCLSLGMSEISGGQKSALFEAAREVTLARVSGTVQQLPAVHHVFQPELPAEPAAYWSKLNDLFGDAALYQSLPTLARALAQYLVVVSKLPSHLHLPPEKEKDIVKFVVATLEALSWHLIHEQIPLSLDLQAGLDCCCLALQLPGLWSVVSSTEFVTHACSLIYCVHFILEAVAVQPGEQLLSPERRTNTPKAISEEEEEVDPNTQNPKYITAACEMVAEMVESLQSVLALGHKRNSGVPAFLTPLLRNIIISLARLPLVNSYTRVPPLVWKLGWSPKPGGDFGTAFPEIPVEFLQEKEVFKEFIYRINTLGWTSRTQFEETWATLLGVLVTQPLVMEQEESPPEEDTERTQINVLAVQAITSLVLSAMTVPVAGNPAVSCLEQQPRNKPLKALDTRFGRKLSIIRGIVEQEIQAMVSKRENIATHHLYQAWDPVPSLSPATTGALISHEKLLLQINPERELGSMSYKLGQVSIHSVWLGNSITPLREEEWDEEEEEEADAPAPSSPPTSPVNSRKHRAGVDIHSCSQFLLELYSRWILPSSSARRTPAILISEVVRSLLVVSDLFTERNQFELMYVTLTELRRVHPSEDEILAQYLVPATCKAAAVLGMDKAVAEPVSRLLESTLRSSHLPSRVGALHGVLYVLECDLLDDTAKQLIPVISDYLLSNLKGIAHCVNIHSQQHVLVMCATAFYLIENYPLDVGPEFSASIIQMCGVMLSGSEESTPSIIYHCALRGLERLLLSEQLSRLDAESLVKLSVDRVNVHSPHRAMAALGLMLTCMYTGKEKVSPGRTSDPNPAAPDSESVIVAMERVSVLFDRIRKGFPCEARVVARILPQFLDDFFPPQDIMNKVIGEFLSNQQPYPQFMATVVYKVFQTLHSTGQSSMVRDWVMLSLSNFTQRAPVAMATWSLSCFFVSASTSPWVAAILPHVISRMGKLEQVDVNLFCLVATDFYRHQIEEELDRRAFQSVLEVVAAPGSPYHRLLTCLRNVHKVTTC
Series [8] relates to Mus musculus. As to the kind of experiment: Toxicity in R6/2 transgenic mouse assessed as body weight loss at 0.4%, po measured on week 12. It is filed as organism-based. The settings on record: in vivo.
Series [9] deals with Mus musculus. As to the kind of experiment: Neuroprotective activity in R6/2 transgenic mouse assessed as reduction of foot-clasping posture at 0.4%, po measured on week 8. It is filed as functional, organism-based.
Series [10] has as its system HeLa. The series can be described thus: Cytotoxicity against human HeLa cells by MTT assay. It is filed as cell-based. On the technique in general: Formazan colour is commonly taken as a measure of viable cells.
The target of series [11] is Huntingtin (Homo sapiens) (UniProt P42858). As to the kind of experiment: Inhibition of N-terminal Htt-exon1-Q103 (unknown origin) transfected in mouse Neuro2a cells assessed as decrease in soluble and insoluble aggregate formation by Western blotting analysis. It counts as cell-based.
For series [12], the system named is Mus musculus. As to the kind of experiment: Neuroprotective activity in wild type mouse assessed as behavioral pattern at 0.4%, po. It counts as ADME, organism-based. The settings on record: in vivo.
For series [13], the system named is Mus musculus. As to the kind of experiment: Inhibition of mutated aggregate formation in brain homogenate of R6/2 transgenic mouse at 0.4%, po by Hoechst staining-based by immunohistochemistry. It is filed as functional, organism-based.
Series [14] deals with Mus musculus. The series can be described thus: Inhibition of mutated huntingtin aggregate formation in brain homogenate of R6/2 transgenic mouse at 0.4%, po by Western blotting analysis. It is filed as functional, organism-based.
Series [15] deals with Huntingtin (Homo sapiens) (UniProt P42858). The series can be described thus: Inhibition of N-terminal Htt-exon1-Q103 (unknown origin) transfected in HEK293A cells at 50 uM by Western blotting analysis. It counts as cell-based. The settings on record: HEK293-A.
Series [16] concerns Mus musculus. The series can be described thus: Neuroprotective activity in R6/2 transgenic mouse assessed as increase in mean survival time at 0.4%, po (reference value: 93 days). It is filed as functional.
Series [17] relates to Mus musculus. The series can be described thus: Neuroprotective activity in R6/2 transgenic mouse assessed as increased locomotory activity at 0.4%, po measured for 20 mins. It is filed as functional, organism-based.
The target in series [18] is Huntingtin (Homo sapiens) (UniProt P42858). As to the kind of experiment: Inhibition of N-terminal GFP-tagged Htt-exon1-Q25 (unknown origin) transfected in HEK293A cells assessed as reduction of Htt-Q103 aggregate formation at 50 uM after 3 days by fluorescence microscopic analysis. It is filed as cell-based. The settings on record: HEK293-A.
Another series concerns RAW264.7. As to the kind of experiment: Cytotoxicity against mouse RAW264.7 cells by MTT assay. It is filed as cell-based.
The nature of series [19]: Cytotoxicity against african green monkey COS7 cells by MTT assay. It is filed as cell-based. The following applies: Chlorocebus aethiops, COS-7.
Series [20] concerns Mus musculus. The series can be described thus: Inhibition of mutated aggregate formation in brain homogenate of R6/2 transgenic mouse at 1%, po by Hoechst staining-based by immunohistochemistry. It counts as functional, organism-based.
Series [21] has as its system Mus musculus. As to the kind of experiment: Inhibition of mutated huntingtin aggregate formation in liver homogenate of R6/2 transgenic mouse at 1%, po after 4 to 8 weeks by Western blotting analysis. It counts as functional, organism-based.
Series [22] has as its system Mus musculus. As to the kind of experiment: Neuroprotective activity in R6/2 transgenic mouse assessed as increased mean survival time at 1%, po (reference value: 93 days). It is filed as functional.
Series [23] concerns the target Huntingtin (Homo sapiens) (UniProt P42858). As to the kind of experiment: Inhibition of N-terminal GFP-tagged Htt-exon1-Q103 (unknown origin) transfected in HEK293A cells assessed as reduction of Htt-Q103 aggregate formation at 200 uM by filter trap assay. The following applies: HEK293-A. It counts as cell-based.
In series [24] the test system is Mus musculus. As to the kind of experiment: Toxicity in R6/2 transgenic mouse assessed as body weight loss at 1%, po measured on week 12. It is filed as organism-based. The settings on record: in vivo.
Series [25] relates to Mus musculus. As to the kind of experiment: Toxicity in C57BL/6 mouse at 454 mg/kg, po. It counts as organism-based. On the set-up: dose 454 mg/kg, route oral. The settings on record: in vivo.
The subject of series [26] is Brain. The series can be described thus: Biodistribution in C57BL/6 mouse brain at 90.9 mg/kg, ip after 60 mins by fluorescence microscopic analysis. The following applies: in vivo, 1 h. Further details: dose 90.9 mg/kg, route intraperitoneal. It is filed as ADME, organism-based.
Another series deals with Kidney. The series can be described thus: Biodistribution in C57BL/6 mouse kidney at 90.9 mg/kg, ip after 60 mins by fluorescence microscopic analysis. The following applies: in vivo, 1 h. It counts as ADME, organism-based. On the set-up: dose 90.9 mg/kg, route intraperitoneal.
Series [27] deals with Brain. As to the kind of experiment: Biodistribution in C57BL/6 mouse brain at 454 mg/kg, po after 24 hrs by fluorescence microscopic analysis. It counts as ADME, organism-based. Further details: dose 454 mg/kg, route oral. The settings on record: in vivo.
The test system of series [28] is Mus musculus. The series can be described thus: Toxicity in C57BL/6 mouse at 90.9 mg/kg, ip. It counts as organism-based. Further details: dose 90.9 mg/kg, route intraperitoneal. The settings on record: in vivo.
A short description of series [29]: Cellular uptake in cytoplasm of human HeLa cells at 10 uM after 10 mins by confocal microscopic analysis in presence mitotracker. It counts as ADME, cell-based.
The test system of the next series is Spleen. As to the kind of experiment: Biodistribution in C57BL/6 mouse spleen at 454 mg/kg, po after 24 hrs by fluorescence microscopic analysis. It is filed as ADME, organism-based. On the set-up: dose 454 mg/kg, route oral. The settings on record: in vivo.
Series [30] can be described thus: Cellular uptake in cytoplasm of human HeLa cells at 1 uM up to 1 hr by confocal microscopic analysis. It is filed as ADME, cell-based.
The nature of series [31]: Cellular uptake in nucleus of human HeLa cells at 1 uM up to 1 hr by confocal microscopic analysis. It counts as ADME, cell-based.
For series [32], the system named is HeLa. The series can be described thus: Cellular uptake in human HeLa cells at 5 to 10 uM after 10 mins by FACS analysis. It counts as ADME, cell-based.

`Cl.N=C(N)NCCCCCC(=O)O[C@@H]1[C@@H](OC(=O)CCCCCNC(=N)N)[C@@H](O[C@H]2O[C@H](CO)[C@@H](OC(=O)CCCCCNC(=N)N)[C@H](OC(=O)CCCCCNC(=N)N)[C@H]2OC(=O)CCCCCNC(=N)N)O[C@H](CO)[C@H]1OC(=O)CCCCCNC(=N)N`: the inhibition entry (in series [1]; with Mus musculus [5]; with Mus musculus [13]; with Mus musculus [14]; in series [15]) was “Active” in each case. The Activity entry is on record as “Non-toxic” with Mus musculus [2], 14% in the series on Mus musculus [8] and “Non-toxic” in the series on Mus musculus [12]. In addition, the solubility entry in series [3] is “soluble”. The inhibition result was “tde” in series [4] (TDE = time-dependent effect), “Dose-dependent effect” in series [7] and “Dose-dependent effect” in [11]. Further, the outcome in the series with Mus musculus [6], with Mus musculus [9] and with Mus musculus [17] was Active. Moreover, the concentration for half-maximal inhibition (IC50) (in the series with HeLa [10]; with RAW264.7; in series [19]) was above 100 µM each time. Besides, the MSD in the series on Mus musculus [16] turned out to be 98.5 days. In [18], the inhibition result is “inactive”.

On to `OC[C@H]1O[C@H](O[C@H]2O[C@H](CO)[C@@H](O)[C@H](O)[C@H]2O)[C@H](O)[C@@H](O)[C@@H]1O` [TREHALOSE], for which the inhibition entry in series [1], in series [4] and in series [23] was “inactive” in each case. The inhibition result in the series on Mus musculus [20] and in the series on Mus musculus [21] was “Active” in each case. The MSD in the series with Mus musculus [22] is 94.5 days. Further, the Activity with Mus musculus [24] came out at 25%.

On to `Cl.N=C(N)NCCCCCC(=O)OC[C@H]1O[C@H](O[C@H]2O[C@H](COC(=O)CCCCCNC(=N)N)[C@@H](OC(=O)CCCCCNC(=N)N)[C@H](OC(=O)CCCCCNC(=N)N)[C@H]2OC(=O)CCCCCNC(=N)N)[C@H](OC(=O)CCCCCNC(=N)N)[C@@H](OC(=O)CCCCCNC(=N)N)[C@@H]1OC(=O)CCCCCNC(=N)N`, for which the inhibition entry in [1] and in [18] was “inactive” in each case. The solubility entry in series [3] is “soluble”. Also, the IC50 (with HeLa [10]; in the series with RAW264.7; in series [19]) was below 100 µM in each case.

With `Cl.N=C(N)NCCCCCC(=O)O[C@@H]1[C@@H](OC(=O)CCCCCNC(=N)N)[C@@H](O[C@H]2O[C@H](COC(=O)CCCCCNC(=S)Nc3ccc(-c4c5ccc(=O)cc-5oc5cc(O)ccc45)c(C(=O)O)c3)[C@@H](OC(=O)CCCCCNC(=N)N)[C@H](OC(=O)CCCCCNC(=N)N)[C@H]2OC(=O)CCCCCNC(=N)N)O[C@H](COC(=O)CCCCCNC(=S)Nc2ccc(-c3c4ccc(=O)cc-4oc4cc(O)ccc34)c(C(=O)O)c2)[C@H]1OC(=O)CCCCCNC(=N)N`, the Activity result in the series on Mus musculus [25] and with Mus musculus [28] was “Non-toxic” in each case. Also, the Drug uptake result (in the series on Brain [26]; in the series with Kidney; in the series on Brain [27]; in series [29]; in the series with Spleen; in series [30]) was “Active” throughout. Further, the Drug uptake result (in series [31]; with HeLa [32]) was “Active” each time. Besides, in [3], the solubility entry is “soluble”.

Broadly, the IC50 is the concentration at which inhibition is half-maximal.

Source of the values: ChEMBL document CHEMBL3217572, “Preparation and evaluation of BBB-permeable trehalose derivatives as potential therapeutic agents for Huntington's disease” (Medchemcomm, 2013).
